Data on ten compounds can be found in patent US12472263B2, “Ophthalmic formulation” (PANOPTES PHARMA GES.M.B.H., priority 2018, dated 2025).

For orientation: thermodynamic solubility means the concentration in solution at equilibrium with solid. The term fraction unbound denotes free concentration divided by total concentration. A low value points to little free substance. One may read the solubility as the dissolved amount per volume that the medium holds. Usually Cmax stands for the highest concentration seen after dosing.

In brackets after ≈: the same amount, converted by molar mass. Structures can show the parent of a compound that is named as a salt. Where two headings read alike, the source gives them in different places.

Data set [1] is described as follows: Thermodynamic solubility in PBS pH 7.4 and in 5% HSA in PBS. The conditions noted are these: for solubility thermodynamic: thermodynamic from solid; for Increase in solubility: from PBS to 5% HSA in PBS. Format: physicochemical. How it is done:
The process was initiated by adding 1 mL of defined buffer to about 1 mg of the solid compound. The solutions were mixed for at least 15 hours. If there was no undissolved substance in the solution visible, an additional portion of the solid compound was added and the solution was further mixed for at least 15 hours. This step was repeated until a saturated solution in equilibrium was achieved; excess solid was clearly visible. The total mixing time until equilibrium should exceed 40 hours. After reaching the equilibrium, the solutions were centrifuged for 10 minutes at 14,000 rpm.

The target in data set [2] is T1, HSA (human serum albumin) (Homo sapiens, UniProt P02768). The data set is described as follows: Binding of different pharmaceutically active compounds to albumin, RED assay. Format: in vitro ADME. The settings on record: 5 h, pH 7.4. How it is done: (§1) For analysis of binding of different pharmaceutically active compounds to HSA (human serum albumin) a rapid equilibrium dialysis (RED) assay from Thermo Scientific™ was conducted. Different pharmaceutically active compounds (in saturated solutions as prepared in Example 1) were applied to the donor side of the device. PBS pH 7.4 was used as acceptor medium. The time required to achieve equilibrium in the dialysis was determined to 5 hours. The formulations were incubated at 23° C. at 300 rpm. The unbound fraction was allowed to permeate through the dialysis membrane into the acceptor buffer chamber. After 5 hours equilibration time, the unbound fraction was determined by analyzing the amount of the active compound in each compartment via LC/MS.
The amount of free compound was calculated according to the equation:
The amount of bound compound is calculated as % bound=100−% free

For data set [3], the target named is T1, HSA (human serum albumin). In words: Binding of PP-001 to albumin, rapid equilibrium dialysis (RED) assay. It is filed as in vitro ADME. How it is done:
as §1, with “PP-001” for “different pharmaceutically active compounds”, “PP-001 formulations” for “pharmaceutically active compounds (in saturated solutions as prepared in Example 1)”, “device and 50 mM phosphate buffer” for “device. PBS”, “time” for “time,”, “PP-001” for “the active compound”, “HPLC/DAD.” for “LC/MS.”
(§2) To investigate nonspecific binding of PP-001 to the RED Device Inserts, a solution of 0.05 mg/mL PP-001 in 50 mM phosphate buffer pH 7.4 was used as a control sample. PP-001 concentration in the acceptor compartment was >82% of the concentration in the donor compartment. Only minor non-specific binding of PP-001 to the RED device was determined.
(§3) The amount of free PP-001 was calculated according to the equation:
(§4) The amount of bound PP-001 is calculated as % bound=100−% free
A general note: In equilibrium dialysis free small molecules cross a membrane that holds back macromolecules.

The next data set deals with human serum albumin (Homo sapiens, UniProt P02768). The data set is described as above. Format: in vitro ADME. The settings on record: PP-001/human serum albumin formulation, pH 7.4; formulation dosed in the rabbit PK study. The protocol:
as §1, with “PP-001” for “different pharmaceutically active compounds”, “PP-001 formulations” for “pharmaceutically active compounds (in saturated solutions as prepared in Example 1)”, “device and 50 mM phosphate buffer” for “device. PBS”, “time” for “time,”, “PP-001” for “the active compound”, “HPLC/DAD.” for “LC/MS.”
as §2, §3, §4

The next data set has as its system uveitis. The conditions noted are these: cited from earlier work.
Data set [4] in a line: Aqueous solubility in phosphate buffer pH 7.4, without and with 5% albumin. Format: physicochemical. The settings on record: thermodynamic from solid. How it is done:
As used herein, “solubility in aqueous solution of at least X mg/mL” refers to thermodynamic solubility of a compound in an aqueous 50 mM phosphate buffer or phosphate buffered saline (PBS) solution at pH 7.4 at least X mg/mL. PP-001 has a solubility of 0.8 mg/mL in an aqueous phosphate buffer solution at pH 7.4. However, if the aqueous buffer solution comprises 5% albumin PP-001 has solubility of at least 5 mg/mL.

The nature of data set [5]: PK study in rabbits after topical ocular administration. Format: in vivo, New Zealand White rabbits. How it is done: To confirm that PP-001/albumin formulations deliver sufficient PP-001 to target tissues (i.e. conjunctiva and cornea), a pharmacokinetic study was performed in New Zealand White rabbits.
10 female animals of ca. 3 months age were dosed one drop (35 μL drop size) of the formulation 1 (3 mg/ml PP-001) in both eyes at time point 0. Animals were sacrificed 5 or 30 minutes or 2, 4, or 12 hours after dosing and ocular tissues and plasma were collected. PP-001 concentration in plasma and tissues were determined by a validated HPLC-MS analytical method.

Where [6] appears, read: aqueous buffer, PBS pH 7.4, saturated, LC/MS, read-out: Thermodynamic solubility in PBS pH 7.4.
The mark [7] stands for this setting: plasma or biological fluid, 5% HSA in PBS pH 7.4, saturated, LC/MS, read-out: Thermodynamic solubility in 5% HSA in PBS pH 7.4.

T1 sequence (P02768 25-609): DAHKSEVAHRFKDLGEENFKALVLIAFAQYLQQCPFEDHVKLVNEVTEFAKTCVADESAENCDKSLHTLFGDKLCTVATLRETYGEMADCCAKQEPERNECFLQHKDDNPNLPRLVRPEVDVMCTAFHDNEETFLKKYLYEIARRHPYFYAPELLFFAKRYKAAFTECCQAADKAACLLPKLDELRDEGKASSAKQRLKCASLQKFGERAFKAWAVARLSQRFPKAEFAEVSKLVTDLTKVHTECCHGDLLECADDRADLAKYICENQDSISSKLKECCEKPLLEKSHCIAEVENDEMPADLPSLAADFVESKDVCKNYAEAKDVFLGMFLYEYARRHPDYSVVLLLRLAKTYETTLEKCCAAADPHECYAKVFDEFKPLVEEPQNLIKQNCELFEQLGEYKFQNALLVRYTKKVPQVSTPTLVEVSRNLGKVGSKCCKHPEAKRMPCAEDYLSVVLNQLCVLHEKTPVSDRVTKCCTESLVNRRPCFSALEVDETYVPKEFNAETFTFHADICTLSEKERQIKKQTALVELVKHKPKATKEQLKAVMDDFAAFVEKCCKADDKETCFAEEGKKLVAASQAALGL
human serum albumin, sequence (P02768 25-609): as above

Turning to `CN1CCCC(n2nc(Cc3ccc(Cl)cc3)c3ccccc3c2=O)CC1` (stereo not drawn) [Azelastine HCl], the thermodynamic solubility in data set [1] (setting [6]) came out at 421 µg/mL; in data set [1] (setting [7]), 827 µg/mL. In addition, the Increase in solubility in data set [1] amounted to 96%. Further, in data set [2] (isolated protein), the “% bound” value came out at 80.9%.
`CCNC(=O)CCC/C=C\C[C@@H]1[C@@H](/C=C/[C@@H](O)CCc2ccccc2)[C@H](O)C[C@@H]1O` [Bimatoprost]: the values for the solubility (thermodynamic) in data set [1] (setting [6]) and in data set [1] (setting [7]) were 1230 µg/mL (≈ 2970 µM) and 3010 µg/mL (≈ 7230 µM), respectively. In data set [1], the Increase in solubility was 144%. Besides, in data set [2] (isolated protein), the “% bound” value was found to be 77.6%.
Taken in the same sequence, the figures for `CCN[C@H]1CN(CCCOC)S(=O)(=O)c2sc(S(N)(=O)=O)cc21` [Brinzolamide] were 273 µg/mL (≈ 712 µM), 387 µg/mL (≈ 1010 µM), 42% and 70.3%.
Regarding `CNCC(O)c1ccc(OC(=O)C(C)(C)C)c(OC(=O)C(C)(C)C)c1` (stereo not drawn) [Dipivefrin HCl], the solubility (thermodynamic) in data set [1] (setting [6]) turned out to be 2340 µg/mL; in data set [1] (setting [7]) it was 7440 µg/mL. In data set [1], this compound registered an Increase in solubility of 218%. For the same compound, the “% bound” value in data set [2] (isolated protein) is given as 64.8%.
With `CC(=O)O[C@H]1C[C@@]2(C)[C@@H](C[C@@H](O)[C@H]3[C@@]4(C)CC[C@@H](O)[C@@H](C)[C@@H]4CC[C@@]32C)/C1=C(\CCC=C(C)C)C(=O)O` [Fusidic Acid], the figures for the thermodynamic solubility in data set [1] (setting [6]) and in data set [1] (setting [7]) were 483 µg/mL (≈ 935 µM) and 1420 µg/mL (≈ 2750 µM), respectively. Besides, the Increase in solubility in data set [1] is given as 195%. The “% bound” value in data set [2] (isolated protein) amounted to 95.7%.
With `C[C@@H]1CN([C@H]2CC[C@](C#N)(c3ccc(F)cc3)CC2)CC[C@]1(C(=O)O)c1ccccc1` [Levocabastine HCl], the thermodynamic solubility in data set [1] (setting [6]) stood at 3 µg/mL; in data set [1] (setting [7]) it was 83 µg/mL. Moreover, the Increase in solubility in data set [1] (HCl) was 2,333%^; in data set [1] (listed as levocabastine HCl, HCl), 2,333%. In data set [2] (isolated protein), the “% bound” value came to 75.4%.
For the compound `NC(=O)Cc1cccc(C(=O)c2ccccc2)c1N` [Nepafenac], the solubility (thermodynamic) in data set [1] (setting [6]) was 9 µg/mL (≈ 35.4 µM); in data set [1] (setting [7]) it was 64 µg/mL (≈ 252 µM). The Increase in solubility in data set [1] is given as 619%. The “% bound” value in data set [2] (isolated protein) is reported as 92.1%.
Take `O=C(Nc1c(F)c(F)c(-c2cccc(OC(F)(F)F)c2)c(F)c1F)c1ccsc1C(=O)O` [PP-001, 3-(2,3,5,6-tetrafluoro-3′-trifluoromethoxy-biphenyl-4-ylcarbamoyl)-thiophene-2-carboxylic acid]: in data set [3] (0.05 mg/mL PP-001 in 50 mM phosphate buffer pH 7.4, no albumin), the “PP-001 concentration in the acceptor compartment as % of the donor compartment (nonspecific binding control)” value is greater than 82%. Also, in data set [3] (even at high PP-001 concentrations), the “binding of PP-001 to albumin (in words)” value is reported as “nearly completely bound to albumin”. In addition, the fraction unbound at 5 h, 3 mg/ml at human serum albumin is less than 0.05. Also, the “relapses of experimental autoimmune uveitis” value in the data set with uveitis (therapeutic approach) was “prevents relapses”. Also, the “clinical and histological symptoms of uveitis” value in the data set with uveitis (two different rat models for uveitis) was “completely ameliorates clinical and histological symptoms”. Besides, the solubility was no less than 5000 µg/mL in data set [4] (aqueous buffer with 5% albumin, aqueous with cosolvent or surfactant or cyclodextrin, buffer pH 7.4 with 5% albumin, read-out: solubility in aqueous buffer solution comprising 5% albumin) and 800 µg/mL (≈ 1670 µM) in data set [4] (aqueous phosphate buffer, aqueous buffer, phosphate buffer pH 7.4, read-out: aqueous solubility in phosphate buffer pH 7.4). For the same compound, the Cmax in data set [5] (female, New Zealand White, rabbit, plasma, topical, 35 μL drop of 3 mg/ml per eye, one 35 μL drop of formulation 1 (3 mg/ml PP-001) in both eyes) was less than 9 ng/mL. Also, the “absorption of PP-001 by ocular tissues (conjunctiva, cornea)” value in data set [5] (one 35 μL drop of formulation 1 (3 mg/ml PP-001) in both eyes) is reported as “substantial amounts of PP-001 are absorbed by ocular tissues”. For the same compound, in data set [5] (one 35 μL drop of formulation 1 (3 mg/ml PP-001), up to 12 hours after dosing), the “persistence in the cornea” value is given as “highly persistent in the cornea”. Moreover, the results for the thermodynamic solubility in data set [1] (setting [6]) and in data set [1] (setting [7]) were 48 µg/mL (≈ 100 µM) and 2910 µg/mL (≈ 6070 µM), respectively. Besides, the “% bound” value is recorded as roughly 100% in data set [2] and 99.9% in data set [2] (isolated protein).
For `CC(=O)OCC(=O)[C@@]1(O)CC[C@H]2[C@@H]3CCC4=CC(=O)C=C[C@]4(C)[C@H]3[C@@H](O)C[C@@]21C` [Prednisolone acetate], the “% bound” value in data set [2] (isolated protein) stood at 94.3%.
Consider Netarsudil mesylate, for which, in data set [1] (5% HSA in PBS pH 7.4, saturated, LC/MS), the “Thermodynamic solubility in 5% HSA in PBS pH 7.4” value is listed as 0.140 mg/mL. Moreover, the “Thermodynamic solubility in PBS pH 7.4” value in data set [1] (PBS pH 7.4, saturated, LC/MS) is on record as less than 0.000051 mg/mL. The Increase in solubility in data set [1] is reported as >10,000%; in data set [1] (listed as netarsudil mesylate) it was > 274,763%.
